Measurements reported in US9994551B2, “Pyridazine derivatives as RORc modulators” (Genentech, Inc., priority 2015, dated 2018).
pIC50: −log10 of the molar value.

What follows are compounds tested against T1, RORc ligand binding domain (Homo sapiens, UniProt P51449) (assay: In vitro RORc ligand binding assay (25-[3H]hydroxycholesterol displacement, filter binding)).
T1 construct: host or cells: E. coli
T1 sequence (P51449 269-508 limits assumed): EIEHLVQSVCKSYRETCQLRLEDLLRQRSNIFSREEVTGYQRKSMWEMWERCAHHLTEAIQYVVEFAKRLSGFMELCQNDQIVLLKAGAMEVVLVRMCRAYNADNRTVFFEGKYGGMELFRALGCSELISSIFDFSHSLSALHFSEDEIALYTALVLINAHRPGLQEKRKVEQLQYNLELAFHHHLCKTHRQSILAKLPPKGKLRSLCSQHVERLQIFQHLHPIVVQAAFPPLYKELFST

pIC50 | Structure (SMILES)
7.68 | CC1(C)[C@H]2CC[C@]1([C@H]1CCCN(C(=O)c3cocn3)C1)c1nnc(-c3c(F)cccc3F)cc12 [Compound 122, [3-[5-(2,6-difluorophenyl)-11,11-dimethyl-3,4-diazatricyclo[6.2.1.02,7]undeca-2,4,6-trien-1-yl]-1-piperidyl]-oxazol-4-yl-methanone]
6.92 | CC1(C)[C@H]2CC[C@]1(Oc1ccc(=O)[nH]c1)c1nnc(-c3c(F)cccc3F)cc12 [Compound 33, 5-(((5S,8R)-3-(2,6-difluorophenyl)-9,9-dimethyl-5,6,7,8-tetrahydro-5,8-methanocinnolin-8-yl)oxy)pyridin-2(1H)-one]
8.22 | CC1(C)[C@H]2CC[C@]1(OS(=O)(=O)C(F)(F)F)c1nnc(-c3c(F)cccc3F)cc12 [Compound 6, (5S,8R)-3-(2,6-difluorophenyl)-9,9-dimethyl-5,6,7,8-tetrahydro-5,8-methanocinnolin-8-yl trifluoromethanesulfonate]
5.36 | CC1(C)[C@H]2CC[C@]1([C@@H]1CCCNC1=O)c1nnc(-c3c(F)cccc3F)cc12 [Compound 139, 3-[5-(2,6-difluorophenyl)-11,11-dimethyl-3,4-diazatricyclo[6.2.1.02,7]undeca-2,4,6-trien-1-yl]piperidin-2-one]
6.52 | C[C@H](O[C@@]12CC[C@@H](c3cc(-c4c(F)cccc4F)nnc31)C2(C)C)C(N)=O [Compound 43, (S)-2-(((5S,8R)-3-(2,6-difluorophenyl)-9,9-dimethyl-5,6,7,8-tetrahydro-5,8-methanocinnolin-8-yl)oxy)propanamide]
7.35 | CC[C@@H](O[C@@]12CC[C@@H](c3cc(-c4c(F)cccc4F)nnc31)C2(C)C)C(=O)NCC1(O)COC1 [Compound 57, (R)-2-(((5S,8R)-3-(2,6-difluorophenyl)-9,9-dimethyl-5,6,7,8-tetrahydro-5,8-methanocinnolin-8-yl)oxy)-N-((3-hydroxyoxetan-3-yl)methyl)butanamide]
8.03 | CCO[C@@]12CC[C@@H](c3cc(-c4c(F)cccc4F)nnc31)C2(C)C [Compound 7, (5S,8R)-3-(2,6-difluorophenyl)-8-ethoxy-9,9-dimethyl-5,6,7,8-tetrahydro-5,8-methanocinnoline]
7.37 | CC[C@H](O[C@@]12CC[C@@H](c3cc(-c4c(F)cccc4F)nnc31)C2(C)C)C(=O)NCCS(C)(=O)=O [Compound 26, (S)-2-(((5S,8R)-3-(2,6-difluorophenyl)-9,9-dimethyl-5,6,7,8-tetrahydro-5,8-methanocinnolin-8-yl)oxy)-N-(2-(methylsulfonyl)ethyl)butanamide]
8.30 | CCOC(=O)c1coc(N2CCO[C@@H]([C@@]34CC[C@@H](c5cc(-c6c(F)cccc6F)nnc53)C4(C)C)C2)n1 [Compound 127, ethyl 2-[2-[5-(2,6-difluorophenyl)-11,11-dimethyl-3,4-diazatricyclo[6.2.1.02,7]undeca-2,4,6-trien-1-yl]morpholin-4-yl]oxazole-4-carboxylate]
6.50 | CC1(C)[C@H]2CC[C@]1([C@@H]1CN(Cc3ccccc3)CCO1)c1nnc(-c3c(F)cccc3F)cc12 [Compound 60, (R)-4-benzyl-2-((5R,8R)-3-(2,6-difluorophenyl)-9,9-dimethyl-5,6,7,8-tetrahydro-5,8-methanocinnolin-8-yl)morpholine]
7.70 | CC1(C)[C@H]2CC[C@]1([C@H]1CCCN(c3ccncn3)C1)c1nnc(-c3c(F)cccc3F)cc12 [Compound 164, 5-(2,6-difluorophenyl)-11,11-dimethyl-1-(1-pyrimidin-4-yl-3-piperidyl)-3,4-diazatricyclo[6.2.1.02,7]undeca-2,4,6-triene]
7.57 | CC1(C)[C@H]2CC[C@]1([C@H]1CCCN(c3ccccn3)C1)c1nnc(-c3c(F)cccc3F)cc12 [Compound 163, 5-(2,6-difluorophenyl)-11,11-dimethyl-1-[1-(2-pyridyl)-3-piperidyl]-3,4-diazatricyclo[6.2.1.02,7]undeca-2,4,6-triene]
